# Source: patent US20260285850A1, “SUBSTITUTED OXAZOLIDINONES AND IMIDAZOLINONES AS HERBICIDES” (FMC CORPORATION, priority 2023, published 2026)
# Tests used:
# Format in all cases: in vivo
# [1] = test system: barnyardgrass (Echinochloa crus-galli); assay: Test A preemergence soil spray, visual injury rating 0-100; conditions: 10 days
# Method in brief: (§1)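 Plants in a loam and sand soil blend were treated with each test chemical, in a non-phytotoxic solvent system including surfactant, either sprayed on seeded soil before emergence or applied after emergence at the one- to two-leaf stage. Ten days later in the greenhouse, plants were compared with untreated controls and visually rated from 0 (no effect) to 100 (complete control).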
# [2] = test system: blackgrass (Alopecurus myosuroides); assay: as above; conditions: 10 days
# Method in brief: as §1
# corn (Zea mays) [3] = assay: as above; conditions: 10 days
# Method in brief: as §1
# [4] = test system: green foxtail (Setaria viridis); assay: as above; conditions: 10 days
# Method in brief: as §1
# kochia (Bassia scoparia) [5] = assay: as above; conditions: 10 days
# Method in brief: as §1
# [6] = test system: oat, wild (wild oat, Avena fatua); assay: as above; conditions: 10 days
# Method in brief: as §1
# [7] = test system: palmer (palmer amaranth, palmer pigweed, Amaranthus palmeri); assay: as above; conditions: 10 days
# Method in brief: as §1
# [8] = test system: ragweed (common ragweed, Ambrosia artemisiifolia); assay: as above; conditions: 10 days
# Method in brief: as §1
# [9] = test system: ryegrass, Italian (italian ryegrass, Lolium multiflorum); assay: as above; conditions: 10 days
# Method in brief: as §1
# soybean (Glycine max) [10] = assay: as above; conditions: 10 days
# Method in brief: as §1
# [11] = test system: wheat (Triticum aestivum); assay: as above; conditions: 10 days
# Method in brief: as §1
# [12] = test system: barnyardgrass (Echinochloa crus-galli); assay: Test A postemergence application, visual injury rating 0-100
# Method in brief: as §1
# [13] = test system: blackgrass (Alopecurus myosuroides); assay: as above
# Method in brief: as §1
# corn (Zea mays) [14] = assay: as above
# Method in brief: as §1
# [15] = test system: galium (catchweed bedstraw, Galium aparine); assay: as above; conditions: Postemergence, 16 g ai/ha, greenhouse 10 days; 0 no effect, 100 complete control
# Method in brief: as §1
# [16] = test system: green foxtail (Setaria viridis); assay: as above
# Method in brief: as §1
# [17] = test system: horseweed (Erigeron canadensis); assay: as above
# Method in brief: as §1
# kochia (Bassia scoparia) [18] = assay: as above
# Method in brief: as §1
# [19] = test system: oat, wild (wild oat, Avena fatua); assay: as above
# Method in brief: as §1
# [20] = test system: palmer (palmer amaranth, palmer pigweed, Amaranthus palmeri); assay: as above
# Method in brief: as §1
# [21] = test system: ragweed (common ragweed, Ambrosia artemisiifolia); assay: as above
# Method in brief: as §1
# [22] = test system: ryegrass, Italian (italian ryegrass, Lolium multiflorum); assay: as above
# Method in brief: as §1
# soybean (Glycine max) [23] = assay: as above
# Method in brief: as §1
# [24] = test system: wheat (Triticum aestivum); assay: as above
# Method in brief: as §1
# [25] = test system: barnyardgrass (Echinochloa crusgalli); assay: Test B flooded paddy test, visual plant response rating 0-100; conditions: 250 g ai/ha, Flood, applied to paddy water, evaluated after 13 days
# Method in brief: (§2)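 Visual evaluation after 13 days. Water-applied treatment, 3 cm flood depth held constant, plants at 2-leaf stage at treatment.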
# [26] = test system: ducksalad (Heteranthera limosa); assay: as above; conditions: 250 g ai/ha, Flood, applied to paddy water, evaluated after 13 days
# Method in brief: as §2
# rice (Oryza sativa) = assay: as above; conditions: 250 g ai/ha, Flood, applied to paddy water, evaluated after 13 days
# Method in brief: as §2
# [27] = test system: sedge, umbrella (small-flower umbrella sedge, Cyperus difformis); assay: as above; conditions: 250 g ai/ha, Flood, applied to paddy water, evaluated after 13 days
# Method in brief: as §2
# [28] = 62 g ai/ha, 0 = no effect, 100 = complete control
# [29] = 62 g ai/ha, postemergence, 10 days, 0 = no effect, 100 = complete control
# [30] = Postemergence, 16 g ai/ha, greenhouse 10 days, 0 no effect, 100 complete control
smiles,measurement,setting,value
CC1(C(=O)NC2CC=C(C(=O)OCC(F)F)C2)CN(c2cc(F)cc(F)c2)C(=O)O1 (stereo not drawn) [Compound 151],Barnyardgrass plant response rating,"[1]; 16 g ai/ha, 0 to 100 scale",0
same,Barnyardgrass plant response rating (0-100),[1]; [28],0
same,Blackgrass plant response rating,"[2]; 16 g ai/ha, 0 to 100 scale",0
same,Blackgrass plant response rating (0-100),[2]; [28],0
same,Corn plant response rating,"corn (Zea mays) [3]; 16 g ai/ha, 0 to 100 scale",0
same,Corn plant response rating (0-100),corn (Zea mays) [3]; [28],0
same,"Foxtail, Green plant response rating","[4]; 16 g ai/ha, 0 to 100 scale",0
same,"Foxtail, Green plant response rating (0-100)",[4]; [28],0
same,Kochia plant response rating,"kochia (Bassia scoparia) [5]; 16 g ai/ha, 0 to 100 scale",0
same,Kochia plant response rating (0-100),kochia (Bassia scoparia) [5]; [28],0
same,"Oat, Wild plant response rating","[6]; 16 g ai/ha, 0 to 100 scale",0
same,"Oat, Wild plant response rating (0-100)",[6]; [28],0
same,"Pigweed, Palmer plant response rating","[7]; 16 g ai/ha, 0 to 100 scale",0
same,"Pigweed, Palmer plant response rating (0-100)",[7]; [28],0
same,Ragweed plant response rating,"[8]; 16 g ai/ha, 0 to 100 scale",0
same,Ragweed plant response rating (0-100),[8]; [28],0
same,"Ryegrass, Italian plant response rating","[9]; 16 g ai/ha, 0 to 100 scale",0
same,"Ryegrass, Italian plant response rating (0-100)",[9]; [28],0
same,Soybean plant response rating,"soybean (Glycine max) [10]; 16 g ai/ha, 0 to 100 scale",0
same,Soybean plant response rating (0-100),soybean (Glycine max) [10]; [28],0
same,Wheat plant response rating,"[11]; 16 g ai/ha, 0 to 100 scale",0
same,Wheat plant response rating (0-100),[11]; [28],0
same,Barnyardgrass plant response rating (0-100),[12]; [29],20
same,Barnyardgrass plant response rating (0 to 100 scale),[12]; [30],0
same,Blackgrass plant response rating (0-100),[13]; [29],0
same,Blackgrass plant response rating (0 to 100 scale),[13]; [30],0
same,Corn plant response rating (0-100),corn (Zea mays) [14]; [29],0
same,Corn plant response rating (0 to 100 scale),corn (Zea mays) [14]; [30],0
same,Galium plant response rating (0 to 100 scale),[15],0
same,"Foxtail, Green plant response rating (0-100)",[16]; [29],0
same,"Foxtail, Green plant response rating (0 to 100 scale)",[16]; [30],0
same,Horseweed plant response rating (0-100),[17]; [29],0
same,Horseweed plant response rating (0 to 100 scale),[17]; [30],0
same,Kochia plant response rating (0-100),kochia (Bassia scoparia) [18]; [29],0
same,Kochia plant response rating (0 to 100 scale),kochia (Bassia scoparia) [18]; [30],0
same,"Oat, Wild plant response rating (0-100)",[19]; [29],0
same,"Oat, Wild plant response rating (0 to 100 scale)",[19]; [30],0
same,"Pigweed, Palmer plant response rating (0-100)",[20]; [29],0
same,"Pigweed, Palmer plant response rating (0 to 100 scale)",[20]; [30],0
same,Ragweed plant response rating (0-100),[21]; [29],0
same,Ragweed plant response rating (0 to 100 scale),[21]; [30],0
same,"Ryegrass, Italian plant response rating (0-100)",[22]; [29],0
same,"Ryegrass, Italian plant response rating (0 to 100 scale)",[22]; [30],0
same,Soybean plant response rating (0-100),soybean (Glycine max) [23]; [29],0
same,Soybean plant response rating (0 to 100 scale),soybean (Glycine max) [23]; [30],0
same,Wheat plant response rating (0-100),[24]; [29],0
same,Wheat plant response rating (0 to 100 scale),[24]; [30],0
same,"Plant response rating, Barnyardgrass (0 to 100 scale, 0 is no effect and 100 is complete control)",[25],0
same,"Plant response rating, Ducksalad (0 to 100 scale, 0 is no effect and 100 is complete control)",[26],0
same,"Plant response rating, Rice (0 to 100 scale, 0 is no effect and 100 is complete control)",rice (Oryza sativa),0
same,"Plant response rating, Sedge, Umbrella (0 to 100 scale, 0 is no effect and 100 is complete control)",[27],0
